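Assay format: 96-well plates, 48-hour exposure. GI50 marks 50% less growth. At the TGI there is no net growth.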 Some results are limits rather than exact numbers.

TGI and GI50 data for 31 molecules are collected here from PubChem BioAssay (NCI).

Common to all, as to test: NCI anticancer screen, dose series, 48 h
Test [1] concerns MDA-N.
In test [2] the test system is HS 578T breast.
For test [3], the system named is DLD-1 colon.
The subject of test [4] is DMS 114 small cell lung.
For test [5], the system named is DMS 273 small cell lung.
The subject of test [6] is LXFL 529 NSCLC.
Test [7] deals with SNB-78 CNS.
In test [8] the test system is RXF-631 renal.
The test system of test [9] is HOP-18 NSCLC.

Regarding `O=C(O)CC(CC(=O)O)n1cccc1`, the TGI in [1] was > 100 µM.

For `Cc1ncc2c(n1)CCC1=C2OS(=O)(=O)CC1N(C)C` (centres undefined), the TGI in test [2] and in test [1] was > 100 µM each time.

As to `CC(C)OC(=O)NNc1c(Cl)cc(Cl)cc1Cl`, the TGI in test [2] and in [1] was > 100 µM throughout.

As to `O=C1CC2=CCCC2O1` (centres undefined), the TGI in test [3], in test [4], in test [5], in test [6] and in [7] was > 100 µM in each case.

As to `Nc1ccccc1SC(CC(=O)c1ccccc1)c1c(Cl)cccc1Cl` (centres undefined), in [2], the GI50 is 4.48 µM and the TGI is 49.5 µM.

Regarding `CCc1n(Cc2ccc3ccccc3c2)cc[n+]1Cc1ccc2ccccc2c1`, in test [2], the GI50 is 1.5 µM and the TGI stood at 5.62 µM.

With `O=[N+]([O-])c1cc2c(ccc3ccccc32)o1`, in test [2], the GI50 was 1.4 µM and the TGI was found to be 5.28 µM.

Take `CCOC(=O)c1nc2sc(Cl)cn2c1/C=N/N=C(N)N`: in test [2], the GI50 is 19.1 µM and the TGI worked out at 74.5 µM.

`COc1ccc(C2=NC(CO)[C@H](c3ccccc3)O2)cc1OC` (some centres undefined): the TGI in test [3], in test [4], in test [5], in [6] and in [8] was > 100 µM in each case.

For `COc1cc2c(cc1OCCCN1CCN(CCCOc3cc4c(cc3OC)C(=O)N3C[C@H](F)C[C@H]3C=N4)CC1)N=C[C@@H]1C[C@@H](F)CN1C2=O`, in test [2], the GI50 was 0.0841 µM and the TGI stood at 2.56 µM.

Consider `Cc1c(C(=O)Nc2ccc(Oc3ccnc4cc(OCC(C)(C)O)ccc34)c(F)c2)c(=O)n(-c2ccccc2)n1C`, for which, in test [2], the GI50 is 3.04 µM and the TGI is > 100 µM.

As to `COc1cccc(C2=C(c3cn(C)c4c(C)cccc34)C(=O)NC2=O)c1`, in test [2], the GI50 is 5.93 µM and the TGI was > 25 µM.

In the case of `N#C/C(=C\c1ccccn1)c1nc2ccccc2o1`, in test [2], the GI50 is 35.1 µM and the TGI was > 100 µM.

`Cc1nc2ccccc2c(/C=C/c2ccc(F)cc2)c1C(=O)/C=C/c1ccccc1`: in test [2], the GI50 was 5.15 µM and the TGI was > 100 µM.

Consider `NC(=O)c1c(-c2ccccc2)c(-c2ccccc2)cc2c(=O)c3ccccc3[nH]c12`, for which the TGI is > 100 µM in test [3]; 56.8 µM in test [4]; 46.6 µM in test [5]; 32.7 µM in [6]; 87.1 µM in test [8]; 54.1 µM in [7].

As for `O=NN(CC(=O)NNc1ccccc1)CC(=O)NNc1ccccc1`, in test [2], the GI50 is > 100 µM and the TGI is > 100 µM.

For the molecule `CCCOC(=O)C1C(c2ccc(OC)cc2)NC(c2ccc(OC)cc2)C(C(=O)OCCC)S1(=O)=O` (centres undefined), the GI50 in [3], in test [4], in [5], in [6], in [8] and in test [7] was > 100 µM throughout. Besides, the TGI in test [3], in test [4], in test [5], in test [6], in test [8] and in [7] was > 100 µM throughout.

Turning to `CCn1cnc(C[C@H](NC(=O)[C@@H](NC(=O)Nc2cc(C(F)(F)F)cc(C(F)(F)F)c2)C(C)(C)C)C(=O)OC)c1`, in [2], the GI50 was > 10 µM and the TGI is > 10 µM.

As to `COc1ccc(C(=O)c2no[n+]([O-])c2C(=O)c2ccc(OC)cc2)cc1`, in [2], the GI50 was 17.8 µM and the TGI was 51.4 µM.

For the molecule `COc1ccc(C)cc1-c1ccc(-c2cc(C)ccc2OC)o1`, the TGI in test [3], in [4], in test [5], in test [6], in [8] and in test [7] was > 100 µM each time.

Consider `CCOC(=O)CCC(NC(=O)c1ccc(Oc2nc3cc(N)cc(N)c3nc2-c2ccccc2)cc1)C(=O)OCC` (centres undefined), for which, in test [2], the GI50 is 43.7 µM and the TGI is > 100 µM.

With `Cc1ccc(-c2csc3ncnc(Nc4cccc(O)c4)c23)cc1`, in test [2], the GI50 was 36.5 µM and the TGI is > 100 µM.

In the case of `O=C1OC(=O)c2c1cc1cc3c(cc1c2-c1ccc2c(c1)OCO2)OCO3`, in test [1], the TGI is > 100 µM.

In the case of `CN(COC(=O)C(C)(C)C)c1nc(N(C)COC(=O)C(C)(C)C)nc(N(C)COC(=O)C(C)(C)C)n1`, the TGI in [2] is > 100 µM; in test [1] it was 80.3 µM.

As to `Oc1ccc(Br)cc1C=Nc1ccc(Oc2ccc(N=Cc3cc(Br)ccc3O)cc2)cc1`, the TGI in test [3], in test [4], in test [5], in test [9] and in [6] was > 19.6 µM in each case.

For the molecule `O=S(=O)(c1ccccc1)C1(C2(S(=O)(=O)c3ccccc3)CCN=N2)CCN=N1` (centres undefined), the TGI in test [3], in test [4], in [5] and in test [6] was > 100 µM throughout.

As to `COc1ccc(/C(=N/O)c2cc(F)c(F)c(OC)c2F)cc1O`, in test [2], the GI50 was 0.938 µM and the TGI was > 100 µM.

On to `COc1cc(/C=C/C(=O)c2cccc(-n3cc(-c4ccccc4)[nH]c3=O)c2)ccc1O`, for which, in test [2], the GI50 is 3.09 µM and the TGI worked out at 18.6 µM.

Regarding `Cc1cc(N)c2cc(NC(=O)/C=C\c3ccccc3Cl)ccc2n1`, in [2], the GI50 was 1.82 µM and the TGI is 3.88 µM.

`O=C(/C=C/c1cccc(Cl)c1)c1ccccc1`: in test [2], the GI50 is 2.1 µM and the TGI turned out to be 7.45 µM.

In the case of `O=C1c2c[n+](Cc3ccccc3)ccc2-c2nc3ccccc3c3ccnc1c23`, in test [2], the GI50 was 1.03 µM and the TGI worked out at 10.2 µM.
